Where two headings read alike, the source gives them in different places.
Experiments:
[1] = test system: epithelial cells; experiment: Effects of compounds on extracellular GSH transport (Table 3); format: cell-based; conditions: Epithelial cell; 50 μM; read-out: % Increase Over Control (extracellular GSH)
[2] = Epithelial lining fluid (ELF) GSH concentration in dexamethasone treated mice; format: in vivo, Wild type (C57/B6) mice; conditions: 1 mg/kg intraperitoneal daily for two days, BALF at 48 hours; mean±standard error
Description: FIG. 17 Dexamethasone-Induced Changes in Epithelial Lining Fluid (ELF) Glutathione (GSH) Concentrations. Wild type (C57/B6) mice were given a 1 mg/kg dexamethasone (DEX) injection (intraperitoneal) daily for two days. Bronchoalveolar lavage fluid (BALF) was obtained at 48 hours after the first initial dose and GSH concentrations determined. BALF was obtained through a tracheal canula with a single 2.0 mL aliquots of phosphate-buffered saline (pH 7.4) that was instilled into the lung and withdrawn only once. The BALF was centrifuged at 4000×g to remove cells (i.e., alveolar macrophages). The cell-free BALF was acidified with metaphosphoric acid to a final concentration of 1% metaphosphoric acid and centrifuged at 20,000×g to pellet the precipitated proteins. GSH concentrations were determined by HPLC coupled with electrochemical detection. ELF concentrations of GSH were calculated from BALF concentrations multiplied by a dilution factor derived from the difference in serum and BALF urea concentrations. […] Data are shown as the mean±standard error for n≧4 with significance attained at p≦0.05.
Serum and BALF Urea Concentrations. […] ELF concentrations are then calculated by multiplying the BALF concentrations by the dilution factor. Urea concentrations in the samples are determined using a commercially available reagent (Sigma Diagnostics 66-20; St. Louis, Mo.).

[3] = test system: P-gp; conditions: single dose; renal basement membrane, liver and intestine; cited from earlier work
[4] = test system: A549 cells; experiment: Intracellular GSH levels by HPLC-EC in A549 cells; format: cell-based, human; conditions: for activity at 25 µM: Homo sapiens, A549, 25 μM
Description: (§1) Cell lines and culture conditions. Human lung epithelial cancer (A549), human leukemia HL-60 and human prostate (PC-3) tumor cells were purchased from ATCC (Manassas, Va.). A549 and PC-3 cells were grown in Ham's F12 medium (F12) and Kaighn's modification of Ham's F12 medium (F12K) with 2 mM L-glutamine (ATCC), respectively, supplemented with 10% fetal bovine serum (FBS) and 5% pen/strep (10,000 unit, Cellgro). HL-60 cells were grown in Iscove's modified Dulbecco's medium with 4 mM L-glutamine (ATCC) supplemented with 20% FBS and 5% pen/strep. Cell were grown in T-75 flask at 37° C. and 5% CO2 air atmosphere and in 24-well plates for GSH levels and LDH release measurements.
(§2) Intracellular levels of GSH. Intracellular GSH levels can be determined by HPLC-EC. Cultured cells from 24-well plates were washed once with 1 ml of PBS and then re-suspended in 0.5 ml of distilled water with 40 μM of digitonin (2 mM stock solution in DMSO) for 30 min at room temperature. Then, 50 μl of 10% meta-phosphoric acid were added (1% final concentration), the samples were sonicated for 2 min, centrifuged at 20,000 g for 10 min, and 0.2 ml of supernatant placed in vials for HPLC analysis. […] The flow rate was […]. The retention time for GSH in these conditions was 7.5 min. The HPLC instrument was from ESA, Inc. (Chelmsford, Mass.), equipped with an autosampler (model 540) and a Coul array detector (model 5600A). The potential applied was +0.75 V vs. H/Pd electrode, and the injection volume 5 μl.

[5] = test system: HL-60 cells; experiment: Intracellular GSH levels by HPLC-EC in HL-60 cells; format: cell-based, human
Description: as §1, §2

[6] = test system: PC-3 cells; experiment: Intracellular GSH levels by HPLC-EC in PC-3 cells; format: cell-based, human
Description: as §1, §2

[7] = test system: A549 cells; experiment: Cytotoxicity as LDH release in A549 cells; format: cell-based, human
Description: as §1
(§3) Assessment of cytotoxicity. In one exemplary method, membrane integrity of A549, HL-60 and PC-3 cells was used as an index of drug-induced cytotoxicity, and was assessed by monitoring the release of cytosolic lactate dehydrogenase (LDH). LDH activity was measured in the culture medium and cell lysates (50 mM HEPES, Triton X-100 0.5%, pH 7) using a plate reader format as previously described (41). Briefly, 5 μl of cell culture supernatant and lysates were incubated with 0.24 mM NADH in a Tris/NaCl pH 7.2 buffer in 96-well plates for 5 min at 25° C. The reaction was started by the addition of 9.8 mM pyruvate and the consumption of NADH followed at 340 nm for 5 min at 30° C. Percent LDH release was calculated by the following: (supernatant LDH/supernatant LDH+lysate LDH)×100.

[8] = test system: HL-60 cells; experiment: Cytotoxicity as LDH release in HL-60 cells; format: cell-based, human
Description: as §1, §3

[9] = test system: PC-3 cells; experiment: Cytotoxicity as LDH release in PC-3 cells; format: cell-based, human
Description: as §1, §3

[10] = test system: HL-60 cells; experiment: Cellular superoxide by flow cytometry with hydroethidine in HL-60 cells; format: cell-based, human
Description: Flow cytometry. In one exemplary method, cellular superoxide (O2^−) was measured by flow cytometry analysis using hydroethidine (HE) (30). Untreated and treated HL-60 cells (approximately 10^6) were exposed to HE (1 μM from 1 mM stock solutions in DMSO) for 30 min, then were centrifuged at 3,500 g for 15 min, and washed once with 1 ml ice-cold PBS. Cells were re-suspended in 0.5 ml ice-cold PBS, and HE oxidation product, i.e., ethidium bromide (EB), analyzed within 30 min using the red channel (PE) of a FACSCalibur flow cytometer from Becton Dickinson Biosciences (San Jose, Calif.). The total number of cell counts was 25,000.

C[C@@H]1C[C@H]2[C@@H]3CCC4=CC(=O)C=C[C@]4(C)[C@@]3(F)[C@@H](O)C[C@]2(C)[C@@]1(O)C(=O)CO [Dexamethasone, 9-fluoro-11 b,17,21-trihydroxy-16a-methylpregna-1,4-diene-3,20-dione, reference compound]
activation at 50 µM [1]: 178% | ELF concentrations of GSH [2]: 75.3 ± 12.0 µM

N.N.[Cl][Pt][Cl] [cisplatin, cis-dichlorodiammne platinum (II)]
induction of P-gp [3]: 200-300 ×

O=c1cc(-c2ccccc2)oc2cc(O)cc(O)c12 [Chrysin, 5,7 dihydroxyflavone]
effect on intracellular GSH (words) ([4]; A549 cells): very potent inducer of intracellular GSH depletion | depletion of intracellular GSH ([4]; A549 cells, 25 μM, 2 hours of treatment): 50% | effect on intracellular GSH (words) ([4]; A549 cells, listed as chrysin): one active flavone-like structure for inducing GSH depletion | activity at 25 µM ([4]; 2 h, read-out: Intracellular GSH levels, % compared to control): 47.2 ± 4% | activity at 25 µM ([4]; 4 h, read-out: Intracellular GSH levels, % compared to control): 5.2 ± 0.5% | activity at 25 µM ([4]; 24 hours treatment, read-out: Int. GSH % con.): < 5% | effect on intracellular GSH (words) ([5]; HL-60 cells): one active flavone-like structure for inducing GSH depletion | intracellular GSH levels in presence of curcumin ([5]; HL-60 cells (FIG. 20B)): induced GSH depletion in presence of curcumin | depletion of intracellular GSH ([5]; HL-60 cells, 50 μM, 24 hours): 50% | activity at 50 µM ([5]; Homo sapiens, HL-60, 50 μM, 24 hours treatment, read-out: Int. GSH % con.): 40% | activity at 25 µM ([6]; Homo sapiens, PC-3, 25 μM, 24 hours treatment, read-out: Int. GSH % con.): 51% | intracellular GSH, combination with curcumin ([6]; PC-3 cells (data not shown)): resulted in GSH depletion | depletion of intracellular GSH ([6]; PC-3 cells, 25 μM, 24 hours): 50% | effect on the toxicity of etoposide ([7]; A549 cells, 48 hours, etoposide (10 µM)): failed to potentiate etoposide's toxicity | toxicity ([7]; A549 cells, after 48 hours of treatment): relatively low toxicity | LDH release, % of control at 75 µM ([7]; Homo sapiens, A549, 75 μM, 48 hours treatment, read-out: LDH rel. % con.): 225% | toxicity ([8]; HL-60 cells, 25 μM (FIG. 20A)): not toxic | effect on the toxicity of curcumin (25 μM), LDH release ([8]; HL-60 cells, 48 hours, compound 25 μM (FIG. 20A)): potentiated the toxicity of curcumin | LDH release, % of control at 50 µM ([8]; Homo sapiens, HL-60, 50 μM, 48 hours treatment, read-out: LDH rel. % con.): 195% | LDH release, % of control at 50 µM ([9]; Homo sapiens, PC-3, 50 μM, 48 hours treatment, read-out: LDH rel. % con.): 132% | effect on curcumin-induced toxicity, LDH release ([9]; PC-3 cells, 48 hours (FIG. 20C)): potentiated | effect on the toxicities of rotenone (20 μM), 2-ME (50 μM) and etoposide (40 μM) ([9]; PC-3 cells, 48 hours, compound 10-20 μM): potentiated | O2^− levels on adding compound to curcumin treatment ([10]; HL-60 cells (FIG. 21B)): no increase of O2^− levels was observed, but rather a decrease after 4 hours | O2^− levels ([10]; HL-60 cells, 25 μM (FIG. 21B)): little change in O2^− levels
